Measured values reported in a compilation of properties of binary mixtures (doi:10.1007/s10953-020-00968-2).

Experiment: xn = mol fraction of the nth substance listed
Conditions: 101 kPa

`O` + CS(=O)(=O)[O-].C[N+](C)(CCO)CCO gave a viscosity (298.15 K, x2 = 0) of 0.877 mPa·s, a viscosity (303.15 K, x2 = 0) of 0.789 mPa·s and a viscosity (313.15 K, x2 = 0) of 0.654 mPa·s.
`CS(=O)(=O)[O-].C[N+](C)(CCO)CCO` + O showed a viscosity (298.15 K, x1 = 0.0989) of 4.55 mPa·s, a viscosity (298.15 K, x1 = 0.2989) of 36.9 mPa·s and a viscosity (298.15 K, x1 = 0.3971) of 77.5 mPa·s. For the same compound, the viscosity (298.15 K, x1 = 0.4797) was 148 mPa·s, the viscosity (298.15 K, x1 = 0.5983) was 288 mPa·s and the viscosity (298.15 K, x1 = 0.6984) was 460 mPa·s. It also gave a viscosity (298.15 K, x1 = 0.7942) of 796 mPa·s, a viscosity (298.15 K, x1 = 0.8928) of 1034 mPa·s and a viscosity (298.15 K, x1 = 1) of 1495 mPa·s. The viscosity (303.15 K, x1 = 0.0989) was 3.91 mPa·s, the viscosity (303.15 K, x1 = 0.1991) was 12.42 mPa·s and the viscosity (303.15 K, x1 = 0.3971) was 60.6 mPa·s. It also gave a viscosity (303.15 K, x1 = 0.4797) of 113 mPa·s, a viscosity (303.15 K, x1 = 0.5983) of 212 mPa·s and a viscosity (303.15 K, x1 = 0.7942) of 558 mPa·s. For the same compound, the viscosity (303.15 K, x1 = 0.8928) was 718 mPa·s, the viscosity (303.15 K, x1 = 1) was 1021 mPa·s and the viscosity (308.15 K, x1 = 0.0989) was 3.45 mPa·s. The viscosity (308.15 K, x1 = 0.1991) was 10.56 mPa·s, the viscosity (308.15 K, x1 = 0.2989) was 24.6 mPa·s and the viscosity (308.15 K, x1 = 0.3971) was 48.3 mPa·s. For the same compound, the viscosity (308.15 K, x1 = 0.4797) was 78.7 mPa·s, the viscosity (308.15 K, x1 = 0.5983) was 160 mPa·s and the viscosity (308.15 K, x1 = 0.6984) was 246 mPa·s. For the same compound, the viscosity (308.15 K, x1 = 0.7942) was 403 mPa·s, the viscosity (308.15 K, x1 = 0.8928) was 510 mPa·s and the viscosity (308.15 K, x1 = 1) was 716 mPa·s. For the same compound, the viscosity (313.15 K, x1 = 0.0989) was 3.06 mPa·s, the viscosity (313.15 K, x1 = 0.1991) was 9.06 mPa·s and the viscosity (313.15 K, x1 = 0.2989) was 20.5 mPa·s. For the same compound, the viscosity (313.15 K, x1 = 0.3971) was 39 mPa·s, the viscosity (313.15 K, x1 = 0.5983) was 123.5 mPa·s and the viscosity (313.15 K, x1 = 0.7942) was 296 mPa·s. It also gave a viscosity (313.15 K, x1 = 0.8928) of 374 mPa·s, a viscosity (313.15 K, x1 = 1) of 513 mPa·s and a viscosity (318.15 K, x1 = 0.0989) of 2.74 mPa·s. It also gave a viscosity (318.15 K, x1 = 0.1991) of 7.85 mPa·s, a viscosity (318.15 K, x1 = 0.3971) of 32.1 mPa·s and a viscosity (318.15 K, x1 = 0.5983) of 86.9 mPa·s. For the same compound, the viscosity (318.15 K, x1 = 0.6984) was 142.8 mPa·s, the viscosity (318.15 K, x1 = 0.7942) was 223 mPa·s and the viscosity (318.15 K, x1 = 0.8928) was 279 mPa·s. The viscosity (323.15 K, x1 = 0.0989) was 2.51 mPa·s, the viscosity (323.15 K, x1 = 0.2989) was 14.75 mPa·s and the viscosity (323.15 K, x1 = 0.3971) was 26.7 mPa·s. It also gave a viscosity (323.15 K, x1 = 0.5983) of 69.4 mPa·s, a viscosity (323.15 K, x1 = 0.7942) of 171 mPa·s and a viscosity (323.15 K, x1 = 0.8928) of 212 mPa·s.
